Source: paper PMC9902381, “Binding and functional structure-activity similarities of 4-substituted 2,5-dimethoxyphenyl isopropylamine analogues at 5-HT2A and 5-HT2B serotonin receptors” (Frontiers in Pharmacology, 2023)
Read-outs that look alike come from different tables or passages of the source.

Assays:
human 5-HT2B receptor [1] = target: T1, human 5-HT2B receptor (Homo sapiens, UniProt P41595); experiment: 5-HT2B receptor functional activity (agonist) using Ca2+ mobilization assay in Flp-In T-REx 293 cells; format: cell-based; conditions: for Maximal 5-HT effect: maximal effect relative to 5-HT = 100%; for Emax: Flp-In-T-REx-293, read-out: Maximal 5-HT effect; for agonist effect at 5-HT2B receptors: highest concentration examined (10,000 nM)
T1 construct: host or cells: Flp-In T-REx 293 cells (HEK 293)

human 5-HT2A = target: human 5-HT2A; parameters: method as in Nelson et al., 1999; conditions: cloned human 5-HT2A vs [125I]DOI; ref Nelson et al., 1999; cited from earlier work
rat 5-HT2 = target: rat 5-HT2; parameters: method as in Seggel et al., 1990; conditions: rat brain 5-HT2 vs [3H]ketanserin; ref Seggel et al., 1990; cited from earlier work
human 5-HT2B = target: human 5-HT2B; parameters: method as in Nelson et al., 1999; conditions: human 5-HT2B vs [3H]5-HT; ref Nelson et al., 1999; cited from earlier work
[2] = substituent constant; ref Hansch et al. 1973; cited from earlier work
human 5-HT2B receptors = test system: human 5-HT2B receptors; parameters: method as in Porter et al. (1999); conditions: CHO cells, intracellular calcium; ref Porter et al. (1999); cited from earlier work
5-HT2B receptor = test system: 5-HT2B receptor; parameters: method as in Huang et al. (2009); conditions: multiple functional assays; ref Huang et al. (2009); cited from earlier work
human 5-HT2B receptor [3] = target: T1, human 5-HT2B receptor; experiment: 5-HT2B receptor antagonism of 10 nM 5-HT Ca2+ signal in Flp-In T-REx 293 cells; format: cell-based
Description: A stable cell line was generated expressing the human 5-HT2B receptor using the Flp-In T-REx system (Thermo Fisher) ([Younkin et al., 2016]; [Steele et al., 2021]). Briefly, 5-HT2B receptor coding plasmid was obtained from cDNA Resource Center (cat # HTR02B0000). The 5-HT2B receptor cDNA was subcloned into the pcDNA/FRT/TO expression plasmid, and was co-transfected with pOG44 plasmid (coding the Flp recombinase) in Flp-In T-REx 293 cells. Cells were selected using 100 μg/mL of hygromycin and resistant cells were expanded and stored in liquid N2 for later use. For experimentation, stable cell lines were plated in Matrigel-coated 96-well imaging plates in Dulbecco’s Modified Eagle Medium (DMEM) containing 10% fetal bovine serum (FBS) and 5% penicillin/streptomycin, and the medium was supplemented with doxycycline (1 μg/mL) to upregulate the expression of the receptor 3 days before the experiment. Then, cells were loaded with Fura 2-AM for 30 min in Ca^2+ imaging solution (IS) consistent of 130 NaCl, 4 KCl, 2 CaCl2, 1 MgCl2, 10 HEPES, 10 glucose (in mM, pH adjusted to 7.4). […] Three wells containing cells were analyzed for each concentration per experiment day. […] All data were processed used Fiji software by ImageJ2 which allowed manual selection of cells and measurement of fluorescence. […]

rat 5-HT2A = test system: rat 5-HT2A; parameters: method as in Seggel et al., 1990; Glennon 2017; conditions: ref Seggel et al., 1990; Glennon 2017; cited from earlier work
[4] = agonist potency, Ca2+ mobilization, Hill slope 1.0
[5] = agonist potency, Ca2+ mobilization, Hill slope 1.0, read-out: h5-HT2B EC50

T1 sequence (P41595 whole entry): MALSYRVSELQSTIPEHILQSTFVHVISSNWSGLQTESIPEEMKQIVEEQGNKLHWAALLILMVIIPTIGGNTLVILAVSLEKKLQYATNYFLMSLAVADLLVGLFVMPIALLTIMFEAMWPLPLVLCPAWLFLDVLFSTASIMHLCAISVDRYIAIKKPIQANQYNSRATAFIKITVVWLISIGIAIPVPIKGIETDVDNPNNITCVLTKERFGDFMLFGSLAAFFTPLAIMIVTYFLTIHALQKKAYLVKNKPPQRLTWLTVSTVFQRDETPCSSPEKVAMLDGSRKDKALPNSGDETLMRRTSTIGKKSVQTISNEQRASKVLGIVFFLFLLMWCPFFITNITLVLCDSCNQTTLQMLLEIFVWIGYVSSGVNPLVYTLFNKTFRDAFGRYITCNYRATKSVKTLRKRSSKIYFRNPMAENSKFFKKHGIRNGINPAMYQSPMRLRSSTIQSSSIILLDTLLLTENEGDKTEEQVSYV

Row | SMILES | h5-HT2B pEC50 ± SEM (human 5-HT2B receptor [1]; [4]) | EC50 (human 5-HT2B receptor [1]; [5]) [µM] | Maximal 5-HT effect (human 5-HT2B receptor [1]) [%] | EC50 (human 5-HT2B receptor [1]) [µM] | Emax (human 5-HT2B receptor [1]) [%] | h5-HT2A pKi (human 5-HT2A) | r5-HT2 pKi (rat 5-HT2) | h5-HT2B pKi (human 5-HT2B) | σp (electronic character of 4-position substituent) [2] | π (lipophilic character of 4-position substituent) [2] | % of the effect of 5-HT at human 5-HT2B (human 5-HT2B receptors) [%] | 5-HT2B receptor agonist action (5-HT2B receptor) | agonist effect at 5-HT2B receptors (human 5-HT2B receptor [1]) | action on the 5-HT-mediated response at 5-HT2B (human 5-HT2B receptor [3]) | rat 5-HT2A functional action (rat 5-HT2A) | potency relative to R (−) enantiomer at 5-HT2B (human 5-HT2B receptor [1]; optical isomers of 2,5-DMA)
1 | COc1ccc(OC)c(C[C@@H](C)N)c1 (single isomer, unassigned) [R (−) enantiomer] | 5.49 ± 0.16 | 3.24 | 87 |  |  |  |  |  |  |  |  |  |  |  |  | 
2 | COc1ccc(OC)c(CC(C)N)c1 (stereo not shown) [1a, 1-(2,5-dimethoxyphenyl)isopropylamine] |  |  |  | 3.39 | 93 | 6.68 | 5.28 | 5.98 | 0 |  |  |  |  |  |  | 
3 | COc1cc(CC(C)N)c(OC)cc1F (stereo not shown) [1b] |  |  |  | 0.439 | 82 | 7.38 | 5.96 | 6.64 | 0.06 | 0.14 |  |  |  |  |  | 
4 | COc1cc(CC(C)N)c(OC)cc1Cl (stereo not shown) [1c] |  |  |  |  |  | 8.85 | 6.66 | 7.50 | 0.23 | 0.71 |  |  |  |  |  | 
5 | COc1cc(CC(C)N)c(OC)cc1Br (stereo not shown) [1d] |  |  |  | 0.0087 | 70 | 9.22 |  | 7.53 | 0.23 | 0.86 | 69 |  |  |  |  | 
6 | COc1cc(CC(C)N)c(OC)cc1I (stereo not shown) [1e] |  |  | 71 | 0.0372 |  |  | 7.72 | 7.70 | 0.18 | 1.12 | 65 | potent 5-HT2B receptor agonist |  |  |  | 
7 | COc1cc(OC)c(OC)cc1CC(C)N (stereo not shown) [1f] |  |  |  |  |  | 7.24 | 5.90 | 6.51 | -0.27 | -0.02 |  |  |  |  |  | 
8 | CCOc1cc(OC)c(CC(C)N)cc1OC (stereo not shown) [1g] |  |  |  | 0.557 | 70 | 7.14 | 5.66 | 6.12 | -0.24 | 0.38 |  |  |  |  |  | 
9 | COc1cc([N+](=O)[O-])c(OC)cc1CC(C)N (stereo not shown) [1h] |  |  |  | 0.089 | 77 | 8.26 | 6.52 | 6.78 | 0.78 | -0.28 |  |  |  |  |  | 
10 | COc1cc(CC(C)N)c(OC)cc1C#N (stereo not shown) [1i] |  |  |  |  |  | 7.34 | 5.62 | 6.11 | 0.66 | -0.57 |  |  |  |  |  | 
11 | CCCc1cc(OC)c(CC(C)N)cc1OC (stereo not shown) [1j] |  |  | 75 | 0.055 |  | 9.05 | 7.16 |  | -0.13 | 1.55 |  |  |  |  |  | 
12 | CCCCCCc1cc(OC)c(CC(C)N)cc1OC (stereo not shown) [1k] |  |  | 0 | > 10 |  | 10.00 | 8.60 | 7.52 | -0.13 | 3.05 |  |  | failed to produce an agonist effect | behaved as antagonists | lack rat 5-HT2A agonist action and behave as antagonists | 
13 | COc1cc(C(C)(C)C)c(OC)cc1CC(C)N (stereo not shown) [1l] |  |  |  | 0.0372 | 69 | 8.43 | 7.72 | 7.61 | -0.20 | 1.98 |  |  |  |  |  | 
14 | COc1cc(CC(C)N)c(OC)cc1Cc1ccccc1 (stereo not shown) [1m] |  |  |  | > 10 | 0 | 9.40 | 8.15 | 7.64 | -0.09 | 2.01 |  |  | failed to produce an agonist effect | behaved as antagonists | lack rat 5-HT2A agonist action and behave as antagonists | 
15 | COc1ccc(OC)c(C[C@H](C)N)c1 [S (+)1a] | 6.32 ± 0.15 | 0.48 | 100 |  |  |  |  |  |  |  |  |  |  |  |  | about six times more potent
